Reference: ChEMBL document CHEMBL1201862, “PubChem BioAssay data set” (2004)
Activity calls are given as the source filed them.

Tests used:
[1] = C. albicans growth with fluconazole, confirmation, fluorescence, retest (AID 2467); format: functional, cell-based
[2] = NIH-3T3 fibroblast cytotoxicity, dose response, cytotoxicity control, cell-based, fluorescence, Alamar Blue, secondary assay (AID 2327); format: functional;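 further: NIH-3T3 mouse fibroblasts cultured with fluconazole at 8 µg/mL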
[3] = microbe, parasite or virus in culture; format: functional; details: Mycobacterium tuberculosis
[4] = biological target: FAD-linked sulfhydryl oxidase ALR (Homo sapiens, UniProt P55789); test: inhibitors of human ALR sulfhydryl oxidase, dose response, biochemical, H2O2 detection, luminescence, cherry-pick (AID 493248)
Chain of FAD-linked sulfhydryl oxidase ALR (P55789 whole entry, the tested form may be a part): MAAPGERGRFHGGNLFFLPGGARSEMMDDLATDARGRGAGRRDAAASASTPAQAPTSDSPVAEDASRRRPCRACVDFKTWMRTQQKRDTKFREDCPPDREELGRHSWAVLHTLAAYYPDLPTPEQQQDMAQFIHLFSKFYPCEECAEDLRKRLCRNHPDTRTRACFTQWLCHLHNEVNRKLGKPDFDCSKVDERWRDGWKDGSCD

[5] = biological target: T1, Carboxy-terminal domain RNA polymerase II polypeptide A small phosphatase 1 (Homo sapiens, UniProt Q9GZU7); test: inhibitors of CTDSP1, concentration-response testing, biochemical assay, absorbance-based, actives from ultra-high-throughput screening (AID 540297); format: functional
T1 sequence (Q9GZU7 whole entry): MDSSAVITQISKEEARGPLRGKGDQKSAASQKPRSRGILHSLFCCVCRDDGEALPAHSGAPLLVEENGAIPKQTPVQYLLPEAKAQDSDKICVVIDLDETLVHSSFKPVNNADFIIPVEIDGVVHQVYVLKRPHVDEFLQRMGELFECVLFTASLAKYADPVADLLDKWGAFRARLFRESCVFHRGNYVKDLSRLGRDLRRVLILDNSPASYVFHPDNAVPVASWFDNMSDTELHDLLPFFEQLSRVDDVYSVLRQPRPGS

[6] = growth suppression of PTEN-null colon cells, dose response, cell-based, HCT116 PTEN knockout (AID 1047); format: functional;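 further: HCT116 colon tumor cells with PTEN knocked out; cells exposed to compound for 60 hours before readout; potency for loss of cell viability measured by luminescence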
[7] = growth suppression of beta-catenin-knockout colon cells, dose response, cell-based, HCT116, human colon tumor (AID 1045); format: functional;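 further: HCT116 colon tumor cells with beta catenin knocked out; cells exposed to compound for 60 hours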
[8] = tested on: H9c2; test: cells; format: functional, cell-based; details: Rattus norvegicus, H9c2, Myocardium;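 further: confirmatory concentration-response retest of ultra-high-throughput screening hits for modulation of myocardial damage; cell death induced by hydrogen peroxide oxidative stress; compound pretreatment for 60 min then peroxide exposure for 2 h; potency is for protecting the cells against peroxide damage rather than for killing them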
[9] = Luminescence Cell-Based Dose Confirmation HTS to Identify Activators of 5'UTR Stem-Loop Driven Alpha-Synuclein mRNA Translation in H4 Neuroglioblastoma Cells. [Related pubchem assays: 1829 (Project Summary), 1814 (Primary HTS)]; format: functional
[10] = biological target: T2, Corticotropin-releasing factor receptor 2/Corticotropin-releasing factor-binding protein (Homo sapiens, UniProt P24387+Q13324); test: Dose Response confirmation of uHTS hits for small molecule antagonists of the CRF-binding protein and CRF-R2 receptor complex.; format: functional; details: read-out: IC50_Mean
T2 sequence (Q13324 whole entry): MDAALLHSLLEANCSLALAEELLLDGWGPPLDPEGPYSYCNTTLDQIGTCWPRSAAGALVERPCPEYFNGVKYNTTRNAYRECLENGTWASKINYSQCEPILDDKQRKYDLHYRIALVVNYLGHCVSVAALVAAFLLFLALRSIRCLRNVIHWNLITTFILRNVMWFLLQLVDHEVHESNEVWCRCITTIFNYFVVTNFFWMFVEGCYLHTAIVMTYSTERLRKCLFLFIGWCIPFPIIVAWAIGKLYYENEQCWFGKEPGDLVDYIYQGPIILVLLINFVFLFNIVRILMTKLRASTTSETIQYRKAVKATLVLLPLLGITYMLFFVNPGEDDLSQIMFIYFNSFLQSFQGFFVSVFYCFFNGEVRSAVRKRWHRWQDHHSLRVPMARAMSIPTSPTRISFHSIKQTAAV
T2 sequence (P24387 whole entry): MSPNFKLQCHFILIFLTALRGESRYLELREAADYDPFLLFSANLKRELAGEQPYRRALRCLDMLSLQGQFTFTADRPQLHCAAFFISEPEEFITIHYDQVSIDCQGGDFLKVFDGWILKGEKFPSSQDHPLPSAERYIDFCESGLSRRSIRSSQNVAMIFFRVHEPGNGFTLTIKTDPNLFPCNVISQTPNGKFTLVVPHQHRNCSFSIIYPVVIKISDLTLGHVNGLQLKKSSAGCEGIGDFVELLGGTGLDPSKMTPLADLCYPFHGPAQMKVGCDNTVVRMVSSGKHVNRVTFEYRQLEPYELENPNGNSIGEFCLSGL

[11] = biological target: T2, Corticotropin-releasing factor receptor 2/Corticotropin-releasing factor-binding protein; test: activators of CRF receptor 2 with binding protein – uHTS hits, confirmation (AID 602473); format: functional; details: read-out: EC50_Mean
[12] = tested on: H4; test: Luminescence Cell-Based Dose Response HTS to Identify Activators of 5'UTR Stem-Loop Driven Prion Protein mRNA Translation in H4 Neuroglioblastoma Cells. [Related pubchem assays: 1829 (Project Summary), 1814 (Primary HTS)]; format: functional; details: Homo sapiens
[13] = Luminescence Cell-Based Dose Response HTS to Identify Activators of Luciferase Translation or Activity in H4 […] Cells. [Related pubchem assays: 1829 (Project Summary), 1814 (Primary HTS)]; format: functional
[14] = Shn3 3'UTR reporter inhibitors, dose response, cell-based, Clone20 osteoblasts, firefly luciferase, cherry-picked (AID 624132); format: functional;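 further: firefly luciferase luminescence from reporter carrying the Shn3 3'UTR in osteoblasts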
[15] = tested on: Streptococcus sp. 'group A'; test: growth inhibition of control SK(-) GAS strain, dose response, counter-screen for streptokinase expression inhibitor project, luminescence, kanamycin, BacTiterGlo, confirmation (AID 1900); format: functional, organism-based
[16] = biological target: T3, Streptokinase A (Streptococcus pyogenes serotype M1, UniProt P10520); test: S. pyogenes streptokinase expression inhibitors, potency, dose response, plasminogen activation absorbance, OD405 (AID 1914); format: functional, Streptococcus pyogenes M1 GAS;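 further: secreted streptokinase activity via plasminogen activation per viability signal from cell pellet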
T3 sequence (P10520 whole entry): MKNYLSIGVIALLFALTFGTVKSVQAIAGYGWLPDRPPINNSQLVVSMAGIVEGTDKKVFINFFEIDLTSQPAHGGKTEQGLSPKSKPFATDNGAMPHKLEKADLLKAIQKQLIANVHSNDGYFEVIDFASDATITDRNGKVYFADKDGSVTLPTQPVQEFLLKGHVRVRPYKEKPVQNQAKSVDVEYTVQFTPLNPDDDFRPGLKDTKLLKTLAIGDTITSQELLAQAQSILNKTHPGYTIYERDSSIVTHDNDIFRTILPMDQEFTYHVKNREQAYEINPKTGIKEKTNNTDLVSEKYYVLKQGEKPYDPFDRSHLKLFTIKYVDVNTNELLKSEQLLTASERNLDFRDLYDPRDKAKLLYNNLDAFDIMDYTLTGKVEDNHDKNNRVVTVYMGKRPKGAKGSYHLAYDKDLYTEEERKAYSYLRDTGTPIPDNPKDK

[17] = tested on: INS1; test: beta cell apoptosis inhibitors, cytokine rescue, dose response, luminescence, retest (AID 449756); format: functional, cell-based; details: Rattus norvegicus;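 further: cell death triggered by IL-1 beta plus TNF-alpha plus IFN-gamma mixture; protective hits raise ATP signal compared with cytokine alone wells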
[18] = tested on: Streptococcus; test: Group A Streptococcus viability loss, dose response, counter-screen for streptokinase expression inhibitor project, luminescence, BacTiterGlo (AID 1915); format: functional, organism-based;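 further: potency for reduction of bacterial viability or growth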
[19] = biological target: T4, Rac GTPase-activating protein 1 (Homo sapiens, UniProt Q9H0H5); test: MgcRacGAP GTPase-activating activity inhibitors, confirmation, biochemical, ADP Hunter fluorescence, primary and confirmatory (AID 624330); format: functional
T4 sequence (Q9H0H5 whole entry): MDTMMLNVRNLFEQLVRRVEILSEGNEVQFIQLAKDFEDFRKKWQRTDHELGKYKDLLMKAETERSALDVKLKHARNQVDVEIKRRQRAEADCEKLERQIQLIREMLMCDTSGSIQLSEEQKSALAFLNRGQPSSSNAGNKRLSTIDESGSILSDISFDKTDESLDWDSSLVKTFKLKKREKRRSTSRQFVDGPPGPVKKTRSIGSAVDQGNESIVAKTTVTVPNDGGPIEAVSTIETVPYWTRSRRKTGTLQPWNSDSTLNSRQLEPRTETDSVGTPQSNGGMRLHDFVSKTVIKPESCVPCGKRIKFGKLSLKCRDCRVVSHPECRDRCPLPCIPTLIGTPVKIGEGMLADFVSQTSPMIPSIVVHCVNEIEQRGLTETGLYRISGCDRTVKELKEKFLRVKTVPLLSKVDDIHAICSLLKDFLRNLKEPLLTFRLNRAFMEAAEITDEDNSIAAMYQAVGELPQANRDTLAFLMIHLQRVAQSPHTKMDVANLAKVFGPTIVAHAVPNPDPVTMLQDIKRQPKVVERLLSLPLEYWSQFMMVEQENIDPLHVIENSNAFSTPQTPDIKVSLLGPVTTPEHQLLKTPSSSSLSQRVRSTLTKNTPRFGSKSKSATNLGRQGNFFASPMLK

[20] = inhibitors of intracellular T. cruzi replication, confirmation, NIH3T3 host cells, beta-gal luminescence (AID 2044); format: functional, cell-based;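 further: intracellular parasites grown in NIH/3T3 mouse fibroblasts as host cells; luminescent beta-galactosidase reporter signal from transgenic T. cruzi replicating inside host cells; inhibitors lower the luminescence signal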
[21] = cytotoxicity toward NIH3T3 fibroblasts, dose response, counter-screen, cell-based, ATP luminescence, mouse fibroblasts (AID 2010); format: functional;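 further: cells exposed to compound for about 90 hours before reading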
[22] = Luminescence Cell-Based Dose Retest to Confirm Inhibitors of Cancer Stem Cells. [Related pubchem assays (depositor defined):AID2717, AID2721]; format: functional; details: Homo sapiens

COc1ccc(C2Nc3ccccc3C(=O)N2O)cc1OC (configuration not stated)
EC50 [1]: > 38 µM (not active)
EC50 [2]: > 150 µM (inactive)

CCOC(=O)N1CCC(N2Cc3cccc(C(=O)Nc4ccc(N(CC)CC)cc4C)c3C2=O)CC1
CC50 [3]: > 40 µM (active)

Cc1cccc(/C=N/n2c(S)nnc2-c2ccccc2)c1O
AC50 [4]: 3.82 µM (active)

CCCc1cc(=O)oc2cc(OCC(=O)NC(Cc3c[nH]c4ccc(O)cc34)C(=O)O)c(Cl)cc12 (configuration not stated)
IC50 [5]: 32.7 µM (active)

O=C(CN1C(=O)S/C(=C\c2ccc(O)c([N+](=O)[O-])c2)C1=O)Nc1ccc(N2CCOCC2)cc1
IC50 [5]: 2.65 µM (active)

Cc1ccc2nc(O)c(CN(Cc3ccco3)S(=O)(=O)c3c(C)ccc4nsnc34)cc2c1
EC50 [6]: 13.2 µM (active)
EC50 [7]: 14.8 µM (active)
IC50 [8]: 8.78 µM (active)

Cc1occc1C(=O)NCCCCc1ccccc1
AC50 [4]: 0.488 µM (active)

CN1C(c2ccc(F)cc2)=CS/C1=C(/C#N)c1nnc(N2CCOCC2)n1-c1ccccc1
EC50 [9]: > 120 µM (not active)
IC50 [10]: > 47.1 µM (inactive)
EC50 [11]: > 53 µM (inactive)
EC50 [12]: > 120 µM (not active)
EC50 [13]: > 120 µM (not active)

Cc1ccc(Nc2nnc(C3C(=O)N(C)C4(C)CC3c3cc(Br)ccc3O4)s2)cc1 (configuration not stated)
EC50 [1]: 4.45 µM (active)
EC50 [2]: 19.8 µM (active)

O=C(COC(=O)c1ccc(Br)o1)NCc1ccco1
IC50 [5]: 9.79 µM (active)

Cc1cccc(C(=O)NC2CCN(C(=O)NCc3ccccc3)CC2)c1
IC50 [5]: 12.1 µM (active)

NS(=O)(=O)c1ccc(CNC(=S)NC(=O)c2ccco2)cc1
AC50 [14]: 22.9 µM (active)

CC(=O)OCC1=C(C(=O)OC(C)(C)C)N2C(=O)[C@@H](NC(=O)Cc3ccccc3)[C@H]2SC1
IC50 [5]: 8.61 µM (active)

N=c1c2c(ncn1CCN1CCOCC1)Oc1ccc3ccccc3c1C2c1ccccc1 (configuration not stated)
EC50 [6]: 16.5 µM (active)
EC50 [7]: 15.3 µM (active)

CC1=CC(C)(C)n2c(O)c(C3=NC(=S)NC3=O)c3cc(OC(=O)c4cccc5ccccc45)cc1c32
EC50 [6]: 19.6 µM (active)
EC50 [7]: 24 µM (active)

CC(=O)Nc1ccccc1N(CC(O)Cn1c2ccccc2c2ccccc21)S(=O)(=O)c1ccc(C)cc1 (configuration not stated)
EC50 [6]: 13.5 µM (active)
EC50 [7]: 17.1 µM (active)

c1ccc2c(c1)ncn2CCCOc1ccc2c(c1)CCC2
EC50 [15]: 22.4 µM (active)
EC50 [16]: > 150 µM (not active)
AC50 [17]: 7.64 µM (active)
EC50 [6]: 30.5 µM (active)
EC50 [7]: 21.6 µM (active)
EC50 [18]: > 150 µM (not active)

O=C1C2C3C=CC(C4CC34)C2C(=O)N1/N=C/c1c[nH]c2ccccc12 (configuration not stated)
EC50 [9]: 11 µM (active)
EC50 [12]: 14.9 µM (active)
EC50 [13]: > 120 µM (not active)

COc1cc(C(=O)c2ccccc2)c(OC)cc1C(=O)Nc1ccc(O)cc1
AC50 [4]: 0.039 µM (active)

Cc1ccn2c(=O)nc(SCC(=O)NCc3ccc4c(c3)OCO4)nc2c1
IC50 [5]: 10.5 µM (active)

COc1cccc(OC)c1C(=O)N1CCN=C1SCc1cccnc1
AC50 [4]: 0.043 µM (active)

C=CCn1c(=N)n(CC(=O)c2cccc([N+](=O)[O-])c2)c2ccccc21
EC50 [1]: > 38 µM (not active)
EC50 [2]: 134 µM (active)

S=C(Nc1ccc(Cl)cc1)NC1CC2CCC(C1)N2Cc1ccccc1 (configuration not stated)
CC50 [3]: > 40 µM (active)

Cc1ccc(NC2CCCN(C(=O)c3ccc(C)c(N4CCNC4=O)c3)C2)cc1C (configuration not stated)
AC50 [4]: 3.32 µM (active)

N#C/C=C\Oc1ccc(Cl)cc1N
CC50 [3]: > 40 µM (active)
IC50 [19]: 218 µM (active)

CCn1c(=O)c(CCC(=O)N2CCN(c3ccccn3)CC2)c(C)c2c(C)nn(-c3cccc(C)c3)c21
EC50 [20]: 1.59 µM (active)
EC50 [21]: > 60 µM (not active)
CC50 [3]: > 40 µM (active)

CCOC(=O)C1(C)Oc2ccccc2C(C(=O)OC)=C1C(=O)OC (configuration not stated)
IC50 [5]: 23.6 µM (active)

Cc1cccc(OCCNc2cc(N3CCN(C)CC3)ccc2[N+](=O)[O-])c1
EC50 [20]: 0.495 µM (active)
EC50 [6]: 19.8 µM (active)
EC50 [7]: 86.1 µM (active)
EC50 [21]: > 60 µM (not active)
AC50 [22]: 1.47 µM (active)

CCOC(=O)c1cc(O)n2c(n1)nc1ccccc12
EC50 [9]: 15.8 µM (active)
EC50 [12]: 20.4 µM (active)
EC50 [13]: 11.4 µM (active)

CN=C(S)N=CNOCc1c(Cl)cccc1Cl
CC50 [3]: > 40 µM (active)

Cc1ccc(Cn2ncn(-c3ccccc3)c2=O)cc1
EC50 [9]: 14.4 µM (active)
EC50 [12]: 7.14 µM (active)
EC50 [13]: 24.1 µM (active)

CCCCC(=O)OCC(=O)N1N=C(c2c[nH]c3ccccc23)C(O)C1c1ccc(OC)cc1 (configuration not stated)
CC50 [3]: > 40 µM (active)
